The source of these data is the supplement of paper PMC10307832.

Test in all cases: relative viability (nuclei count vs DMSO), 5 days (fraction); higher = more cells survive
Compound in experiment [1]: Cc1ccc(C(=O)Nc2ccc(CN3CCN(C)CC3)c(C(F)(F)F)c2)cc1C#Cc1cnc2cccnn12 [Ponatinib] + Nc1ncn([C@H]2C[C@H](O)[C@@H](CO)O2)c(=O)n1 [Decitabine] (partner 2 µM)
The essentials:
(§1)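 Medians of duplicate plates are given as relative viability. That measure is the nuclei count in treated wells divided by the count in vehicle wells. Counts were taken on 4× images of lung cancer cell lines in 1536-well plates, 5 days after pin-tool dosing the day after seeding with one drug alone or a fixed anchor-drug dose plus five library-drug doses (not always all listed) in √10 steps.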

Compound in experiment [2]: Cc1ccc(Nc2nccc(N(C)c3ccc4c(C)n(C)nc4c3)n2)cc1S(N)(=O)=O [Pazopanib] + CS(=O)(=O)CCNCc1ccc(-c2ccc3ncnc(Nc4ccc(OCc5cccc(F)c5)c(Cl)c4)c3c2)o1 [Lapatinib] (partner 2 µM)
The procedure, abridged:
as §1

Compound in experiment [3]: Cc1ccc(C(=O)Nc2ccc(CN3CCN(C)CC3)c(C(F)(F)F)c2)cc1C#Cc1cnc2cccnn12 [Ponatinib] + Cc1nc(NC(=O)N2CCC[C@H]2C(N)=O)sc1-c1ccnc(C(C)(C)C(F)(F)F)c1 [Alpelisib] (partner 2 µM)
The procedure, abridged:
as §1

Compound in experiment [4]: Cc1ccc(Nc2nccc(N(C)c3ccc4c(C)n(C)nc4c3)n2)cc1S(N)(=O)=O [Pazopanib] + Cc1nc(NC(=O)N2CCC[C@H]2C(N)=O)sc1-c1ccnc(C(C)(C)C(F)(F)F)c1 [Alpelisib] (partner 2 µM)
The essentials: as §1

Turning to LCLC-97TM1, the relative viability was determined as 0.205 in experiment [1] (first compound 0.002 µM); 0.242 in experiment [1] (first compound 0.006325 µM); 0.214 in experiment [1] (first compound 0.06325 µM); 0.248 in experiment [1] (first compound 0.2 µM); 0.613 in experiment [2] (first compound 0.03162 µM); 0.974 in experiment [2] (first compound 0.1 µM). Also, the relative viability turned out to be 1.52 in experiment [2] (first compound 0.3162 µM); 0.918 in experiment [2] (first compound 1 µM); 0.227 in experiment [3] (first compound 0.006325 µM); 0.314 in experiment [3] (first compound 0.2 µM); 0.236 in experiment [4] (first compound 0.03162 µM); 0.272 in experiment [4] (first compound 0.1 µM). Further, the results for the relative viability in experiment [4] (first compound 0.3162 µM) and in experiment [4] (first compound 1 µM) were 0.234 and 0.243, respectively.

With LCLC-103H, the relative viability in experiment [1] (first compound 0.002 µM) is 0.713; in experiment [1] (first compound 0.006325 µM) it was 0.693; in experiment [1] (first compound 0.06325 µM) it was 0.759; in experiment [1] (first compound 0.2 µM), 0.722; in experiment [3] (first compound 0.002 µM) it was 0.89; in experiment [3] (first compound 0.006325 µM), 0.969. For the same cell line, the relative viability in experiment [3] (first compound 0.06325 µM) came out at 1.07; in experiment [3] (first compound 0.2 µM), 1.03; in experiment [4] (first compound 0.01 µM), 0.782; in experiment [4] (first compound 0.03162 µM) it was 0.823; in experiment [4] (first compound 0.1 µM) it was 1.03; in experiment [4] (first compound 0.3162 µM) it was 0.973. In experiment [4] (first compound 1 µM), the relative viability came out at 1.06.

As for NCI-H441, the relative viability in experiment [1] (first compound 0.002 µM) was 0.228; in experiment [1] (first compound 0.006325 µM) it was 0.246; in experiment [1] (first compound 0.06325 µM), 0.271; in experiment [1] (first compound 0.2 µM) it was 0.267; in experiment [3] (first compound 0.002 µM), 0.625; in experiment [3] (first compound 0.006325 µM), 0.615. For the same cell line, the relative viability in experiment [3] (first compound 0.06325 µM) turned out to be 0.808; in experiment [3] (first compound 0.2 µM), 0.525; in experiment [4] (first compound 0.01 µM), 0.71; in experiment [4] (first compound 0.03162 µM), 0.73; in experiment [4] (first compound 0.1 µM), 0.987; in experiment [4] (first compound 0.3162 µM), 0.655. The relative viability in experiment [4] (first compound 1 µM) is 0.728.

With NCI-H522, the relative viability in experiment [1] (first compound 0.002 µM) was 0.615; in experiment [1] (first compound 0.006325 µM), 0.64; in experiment [1] (first compound 0.06325 µM), 0.615; in experiment [1] (first compound 0.2 µM) it was 0.609.

As to NCI-H1299, the relative viability in experiment [2] (first compound 0.01 µM) is 0.928; in experiment [2] (first compound 0.03162 µM), 0.962; in experiment [2] (first compound 0.1 µM), 0.969; in experiment [2] (first compound 0.3162 µM), 1.02; in experiment [2] (first compound 1 µM), 0.894; in experiment [3] (first compound 0.002 µM), 1.04. Further, the relative viability in experiment [3] (first compound 0.006325 µM) is 1.09; in experiment [3] (first compound 0.06325 µM), 0.987; in experiment [3] (first compound 0.2 µM), 0.935; in experiment [4] (first compound 0.01 µM) it was 1.07; in experiment [4] (first compound 0.03162 µM) it was 0.976; in experiment [4] (first compound 0.1 µM), 1.12. Further, the relative viability turned out to be 1 in experiment [4] (first compound 0.3162 µM) and 1.06 in experiment [4] (first compound 1 µM).

Turning to NCI-H1563, the relative viability in experiment [2] (first compound 0.01 µM) amounted to 0.75; in experiment [2] (first compound 0.03162 µM) it was 1; in experiment [2] (first compound 0.1 µM) it was 0.997; in experiment [2] (first compound 0.3162 µM), 1.09; in experiment [2] (first compound 1 µM) it was 1.16; in experiment [3] (first compound 0.002 µM) it was 0.998. The relative viability in experiment [3] (first compound 0.006325 µM) stood at 0.953; in experiment [3] (first compound 0.06325 µM), 1; in experiment [3] (first compound 0.2 µM), 0.789; in experiment [4] (first compound 0.01 µM) it was 0.902; in experiment [4] (first compound 0.03162 µM), 0.868; in experiment [4] (first compound 0.1 µM), 0.978. Also, the relative viability in experiment [4] (first compound 0.3162 µM) stood at 0.935; in experiment [4] (first compound 1 µM) it was 0.929.

Turning to NCI-H1648, the relative viability in experiment [1] (first compound 0.002 µM) stood at 0.464; in experiment [1] (first compound 0.006325 µM), 0.615; in experiment [1] (first compound 0.06325 µM) it was 0.429; in experiment [1] (first compound 0.2 µM) it was 0.358.

For the cell line NCI-H1650, the relative viability in experiment [1] (first compound 0.002 µM) turned out to be 0.328; in experiment [1] (first compound 0.006325 µM), 0.653; in experiment [1] (first compound 0.06325 µM), 0.449; in experiment [1] (first compound 0.2 µM) it was 0.324; in experiment [2] (first compound 0.01 µM), 0.693; in experiment [2] (first compound 0.03162 µM) it was 0.868. Further, the relative viability came out at 0.718 in experiment [2] (first compound 0.1 µM), 0.82 in experiment [2] (first compound 0.3162 µM) and 0.895 in experiment [2] (first compound 1 µM).

Take NCI-H1703: the relative viability worked out at 1.09 in experiment [2] (first compound 0.01 µM); 0.629 in experiment [2] (first compound 0.03162 µM); 0.41 in experiment [2] (first compound 0.1 µM); 0.354 in experiment [2] (first compound 0.3162 µM); 0.286 in experiment [2] (first compound 1 µM); 0.299 in experiment [3] (first compound 0.002 µM). Moreover, the relative viability in experiment [3] (first compound 0.006325 µM) was 0.355; in experiment [3] (first compound 0.06325 µM) it was 0.225; in experiment [3] (first compound 0.2 µM) it was 0.186; in experiment [4] (first compound 0.01 µM), 0.338; in experiment [4] (first compound 0.03162 µM) it was 0.293; in experiment [4] (first compound 0.1 µM) it was 0.216. In addition, the results for the relative viability in experiment [4] (first compound 0.3162 µM) and in experiment [4] (first compound 1 µM) were 0.279 and 0.278, respectively.

NCI-H2228: the relative viability in experiment [2] (first compound 0.01 µM) came out at 1.32; in experiment [2] (first compound 0.03162 µM) it was 1.15; in experiment [2] (first compound 0.1 µM), 0.979; in experiment [2] (first compound 0.3162 µM) it was 1.08; in experiment [2] (first compound 1 µM), 0.929; in experiment [3] (first compound 0.002 µM), 0.677. Further, the relative viability in experiment [3] (first compound 0.006325 µM) came out at 0.788; in experiment [3] (first compound 0.06325 µM), 1.13; in experiment [3] (first compound 0.2 µM), 0.75; in experiment [4] (first compound 0.01 µM), 0.783; in experiment [4] (first compound 0.03162 µM) it was 0.89; in experiment [4] (first compound 0.1 µM) it was 1.02. The relative viability was 0.769 in experiment [4] (first compound 0.3162 µM) and 0.643 in experiment [4] (first compound 1 µM).

As for NCI-H2342, the relative viability worked out at 0.74 in experiment [1] (first compound 0.002 µM), 0.703 in experiment [1] (first compound 0.006325 µM), 0.837 in experiment [1] (first compound 0.06325 µM) and 0.77 in experiment [1] (first compound 0.2 µM).

Consider SW 900, for which the relative viability in experiment [1] (first compound 0.002 µM) is 0.447; in experiment [1] (first compound 0.006325 µM), 0.43; in experiment [1] (first compound 0.06325 µM), 0.518; in experiment [1] (first compound 0.2 µM), 0.481.
